Assay results as given in PubChem BioAssay (NCI).
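GI50 is the concentration that inhibits growth by half. TGI marks complete inhibition of growth.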

Key:
Test in all cases: growth of human tumour cells (NCI), 384-well format
786-0 renal = tested on: 786-0 renal
A498 renal = tested on: A498 renal
A549 NSCLC = tested on: A549 NSCLC
ACHN renal = tested on: ACHN renal
BT-549 breast = tested on: BT-549 breast
CAKI-1 renal = tested on: CAKI-1 renal
CCRF-CEM leukemia = tested on: CCRF-CEM leukemia
COLO 205 colon = tested on: COLO 205 colon
DU-145 prostate = tested on: DU-145 prostate
EKVX NSCLC = tested on: EKVX NSCLC
HCC-2998 colon = tested on: HCC-2998 colon
HCT-116 colon = tested on: HCT-116 colon
HCT-15 colon = tested on: HCT-15 colon
HL-60(TB) leukemia = tested on: HL-60(TB) leukemia
HOP-62 NSCLC = tested on: HOP-62 NSCLC
HOP-92 NSCLC = tested on: HOP-92 NSCLC
HS 578T breast = tested on: HS 578T breast
HT29 colon = tested on: HT29 colon
IGROV1 ovarian = tested on: IGROV1 ovarian
K-562 leukemia = tested on: K-562 leukemia
KM12 colon = tested on: KM12 colon
LOX IMVI melanoma = tested on: LOX IMVI melanoma
M14 melanoma = tested on: M14 melanoma
MALME-3M melanoma = tested on: MALME-3M melanoma
MCF7 breast = tested on: MCF7 breast
MDA-MB-231 breast = tested on: MDA-MB-231 breast
MDA-MB-435 melanoma = tested on: MDA-MB-435 melanoma
MDA-MB-468 breast = tested on: MDA-MB-468 breast
MOLT-4 leukemia = tested on: MOLT-4 leukemia
NCI-H226 lung = tested on: NCI-H226 lung
NCI-H23 lung = tested on: NCI-H23 lung
NCI-H322M lung = tested on: NCI-H322M lung
NCI-H460 NSCLC = tested on: NCI-H460 NSCLC
NCI-H522 lung = tested on: NCI-H522 lung
NCI/ADR-RES ovarian = tested on: NCI/ADR-RES ovarian
OVCAR-3 ovarian = tested on: OVCAR-3 ovarian
OVCAR-4 ovarian = tested on: OVCAR-4 ovarian
OVCAR-5 ovarian = tested on: OVCAR-5 ovarian
OVCAR-8 ovarian = tested on: OVCAR-8 ovarian
PC-3 prostate = tested on: PC-3 prostate
RPMI-8226 leukemia = tested on: RPMI-8226 leukemia
RXF 393 renal = tested on: RXF 393 renal
SF-268 CNS = tested on: SF-268 CNS
SF-295 CNS = tested on: SF-295 CNS
SF-539 CNS = tested on: SF-539 CNS
SK-MEL-2 melanoma = tested on: SK-MEL-2 melanoma
SK-MEL-28 melanoma = tested on: SK-MEL-28 melanoma
SK-MEL-5 melanoma = tested on: SK-MEL-5 melanoma
SK-OV-3 ovarian = tested on: SK-OV-3 ovarian
SN12C renal = tested on: SN12C renal
SNB-19 CNS = tested on: SNB-19 CNS
SNB-75 CNS = tested on: SNB-75 CNS
SR leukemia = tested on: SR leukemia
SW-620 colon = tested on: SW-620 colon
T-47D breast = tested on: T-47D breast
TK-10 renal = tested on: TK-10 renal
U251 glioblastoma = tested on: U251 glioblastoma
UACC-257 melanoma = tested on: UACC-257 melanoma
UACC-62 melanoma = tested on: UACC-62 melanoma
UO-31 renal = tested on: UO-31 renal

Cc1cc2cc(Oc3ccnc(Nc4cccc(CS(=O)(=O)NCCN(C)C)c4)n3)ccc2[nH]1 was tested, and the GI50 ([…]-0 renal) was 3.36 µM, the TGI (786-0 renal) was 11.9 µM and the GI50 (A498 renal) was 3.08 µM. It also gave a TGI (A498 renal) of 11.1 µM, a GI50 (A549 NSCLC) of 7.13 µM and a TGI (A549 NSCLC) of 19.4 µM. For the same molecule, the GI50 (ACHN renal) was 6.45 µM, the TGI (ACHN renal) was 19 µM and the GI50 (BT-549 breast) was 2.19 µM. For the same molecule, the TGI (BT-549 breast) was 7.26 µM, the GI50 (CAKI-1 renal) was 3.61 µM and the TGI (CAKI-1 renal) was 13.9 µM. It also gave a GI50 (CCRF-CEM leukemia) of 1.96 µM, a TGI (CCRF-CEM leukemia) of 3.65 µM and a GI50 (COLO 205 colon) of 4.4 µM. For the same molecule, the TGI (COLO 205 colon) was 10.2 µM, the GI50 (DU-145 prostate) was 8.4 µM and the TGI (DU-145 prostate) was 20.8 µM. For the same molecule, the GI50 (EKVX NSCLC) was 5.04 µM, the TGI (EKVX NSCLC) was 16.7 µM and the GI50 (HCC-2998 colon) was 2.02 µM. It also gave a TGI (HCC-2998 colon) of 3.98 µM, a GI50 (HCT-116 colon) of 3.29 µM and a TGI (HCT-116 colon) of 11.8 µM. It also gave a GI50 (HCT-15 colon) of 5.47 µM, a TGI (HCT-15 colon) of 16.7 µM and a GI50 (HL-60(TB) leukemia) of 2.45 µM. It also gave a TGI (HL-60(TB) leukemia) of 5.63 µM, a GI50 (HOP-62 NSCLC) of 7.38 µM and a TGI (HOP-62 NSCLC) of 20.2 µM. It also gave a GI50 (HOP-92 NSCLC) of 2.51 µM, a TGI (HOP-92 NSCLC) of 7.51 µM and a GI50 (HS 578T breast) of 1.69 µM. The TGI (HS 578T breast) was 5.72 µM, the GI50 (HT29 colon) was 2.4 µM and the TGI (HT29 colon) was 6.03 µM. It also gave a GI50 (IGROV1 ovarian) of 3.05 µM, a TGI (IGROV1 ovarian) of 9.84 µM and a GI50 (K-562 leukemia) of 1.27 µM. For the same molecule, the TGI (K-562 leukemia) was 2.59 µM, the GI50 (KM12 colon) was 0.736 µM and the TGI (KM12 colon) was 12.2 µM. It also gave a GI50 (LOX IMVI melanoma) of 1.93 µM, a TGI (LOX IMVI melanoma) of 4.2 µM and a GI50 (M14 melanoma) of 3.38 µM. For the same molecule, the TGI (M14 melanoma) was 7.81 µM, the GI50 (MALME-3M melanoma) was 1.84 µM and the TGI (MALME-3M melanoma) was 3.34 µM. The GI50 (MCF7 breast) was 3.48 µM, the TGI (MCF7 breast) was 12.7 µM and the GI50 (MDA-MB-231 breast) was 6.73 µM. The TGI (MDA-MB-231 breast) was 19.1 µM, the GI50 (MDA-MB-435 melanoma) was 7.5 µM and the TGI (MDA-MB-435 melanoma) was 19.6 µM. It also gave a GI50 (MDA-MB-468 breast) of 3.19 µM, a TGI (MDA-MB-468 breast) of 7.85 µM and a GI50 (MOLT-4 leukemia) of 1.8 µM. It also gave a TGI (MOLT-4 leukemia) of 3.24 µM, a GI50 (NCI-H226 lung) of 1.95 µM and a TGI (NCI-H226 lung) of 12.5 µM. For the same molecule, the GI50 (NCI-H23 lung) was 2.51 µM, the TGI (NCI-H23 lung) was 8.7 µM and the GI50 (NCI-H322M lung) was 10.7 µM. For the same molecule, the TGI (NCI-H322M lung) was 23.2 µM, the GI50 (NCI-H460 NSCLC) was 2.62 µM and the TGI (NCI-H460 NSCLC) was 6.54 µM. The GI50 (NCI-H522 lung) was 2.47 µM, the TGI (NCI-H522 lung) was 7.78 µM and the GI50 (NCI/ADR-RES ovarian) was 15.3 µM. For the same molecule, the TGI (NCI/ADR-RES ovarian) was 28.8 µM, the GI50 (OVCAR-3 ovarian) was 6.2 µM and the TGI (OVCAR-3 ovarian) was 18 µM. For the same molecule, the GI50 (OVCAR-4 ovarian) was 12 µM, the TGI (OVCAR-4 ovarian) was 24.4 µM and the GI50 (OVCAR-5 ovarian) was 3.81 µM. The TGI (OVCAR-5 ovarian) was 13.1 µM, the GI50 (OVCAR-8 ovarian) was 9.99 µM and the TGI (OVCAR-8 ovarian) was 22.1 µM. It also gave a GI50 (PC-3 prostate) of 4.19 µM, a TGI (PC-3 prostate) of 14.9 µM and a GI50 (RPMI-8226 leukemia) of 3.29 µM. It also gave a TGI (RPMI-8226 leukemia) of 11.4 µM, a GI50 (RXF 393 renal) of 1.83 µM and a TGI (RXF 393 renal) of 4.32 µM. It also gave a GI50 (SF-268 CNS) of 3.93 µM, a TGI (SF-268 CNS) of 14.1 µM and a GI50 (SF-295 CNS) of 8.49 µM. It also gave a TGI (SF-295 CNS) of 21.1 µM, a GI50 (SF-539 CNS) of 2.04 µM and a TGI (SF-539 CNS) of 6.29 µM. It also gave a GI50 (SK-MEL-2 melanoma) of 2.64 µM, a TGI (SK-MEL-2 melanoma) of 6.28 µM and a GI50 (SK-MEL-28 melanoma) of 4.58 µM. The TGI (SK-MEL-28 melanoma) was 12.4 µM, the GI50 (SK-MEL-5 melanoma) was 1.74 µM and the TGI (SK-MEL-5 melanoma) was 3.16 µM. It also gave a GI50 (SK-OV-3 ovarian) of 8.13 µM, a TGI (SK-OV-3 ovarian) of 20.8 µM and a GI50 (SN12C renal) of 3.66 µM. It also gave a TGI (SN12C renal) of 13.2 µM, a GI50 (SNB-19 CNS) of 8.83 µM and a TGI (SNB-19 CNS) of 21.2 µM. It also gave a GI50 (SNB-75 CNS) of 1.55 µM, a TGI (SNB-75 CNS) of 3.81 µM and a GI50 (SR leukemia) of 1.38 µM. It also gave a TGI (SR leukemia) of 2.69 µM, a GI50 (SW-620 colon) of 11.1 µM and a TGI (SW-620 colon) of 23.3 µM. It also gave a GI50 (T-47D breast) of 7.08 µM, a TGI (T-47D breast) of 19.2 µM and a GI50 (TK-10 renal) of 8.76 µM. The TGI (TK-10 renal) was 21.2 µM, the GI50 (U251 glioblastoma) was 3.56 µM and the TGI (U251 glioblastoma) was 14.5 µM. For the same molecule, the GI50 (UACC-257 melanoma) was 1.84 µM, the TGI (UACC-257 melanoma) was 3.26 µM and the GI50 (UACC-62 melanoma) was 2.78 µM. The TGI (UACC-62 melanoma) was 7.45 µM, the GI50 (UO-31 renal) was 10.6 µM and the TGI (UO-31 renal) was 22.5 µM.
